Test systems include M14 melanoma; HCC-2998 colon; OVCAR-5 ovarian; RXF 393 renal; SNB-19 CNS; SF-268 CNS; HCT-15 colon; UACC-257 melanoma.
Experiment in all cases: growth of human tumour cells (NCI), 48 h

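Test compounds were applied to cells in 96-well plates for 48 hours at 5 doses. GI50 is the concentration that inhibits growth by half. TGI is the concentration that stops growth completely.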 *1 amine or outer side, *2 acyl side, *3 side chain or, on linkers, in order; H or OH if unused. Where a SMILES comes first, the peptide text is derived from it. Bridges are numbered along the chain shown (N, C = ends). [ ]: non-standard residue; d: D form. The star is where a group is joined. Phe(3-Me) = Cc1cccc(C[C@H](N)C(=O)O)c1; NH(4-Cl-2-F-phenyl) = Fc1cc(Cl)ccc1N*; Pro(4R-Me) = C[C@H]1CN[C@H](C(=O)O)C1; Propanoyl(3-NMe2) = CN(C)CCC(=O)*; Hyp = O=C(O)[C@@H]1C[C@@H](O)CN1; aThr = C[C@H](O)[C@H](N)C(=O)O; Pip = O=C(O)[C@@H]1CCCCN1; CO = O=C([*:1])[*:2]

`COC(=O)c1ccc(C2SCC(=O)N2NC(=O)C(O)c2ccccc2)cc1` (configuration not stated): the GI50 with M14 melanoma, in the assay with HCC-2998 colon, in the assay with OVCAR-5 ovarian, with RXF 393 renal, in the assay with SNB-19 CNS and in the assay on SF-268 CNS was above 100 µM each time. Also, the GI50 in the assay on HCT-15 colon and with UACC-257 melanoma was above 100 µM each time. Also, the TGI with M14 melanoma, in the assay on HCC-2998 colon, in the assay on OVCAR-5 ovarian, in the assay on RXF 393 renal, with SNB-19 CNS and with SF-268 CNS was above 100 µM throughout. Besides, the TGI in the assay on HCT-15 colon and with UACC-257 melanoma was above 100 µM in each case.

`CC(=O)Nc1sc2c(c1-c1nc3ccccc3s1)CNC2`: the GI50 with M14 melanoma is 2.47 µM; in the assay on HCC-2998 colon, 2.58 µM; with OVCAR-5 ovarian, 3.05 µM; in the assay on RXF 393 renal, 2.25 µM; with SNB-19 CNS, 3.49 µM; with SF-268 CNS, 2.94 µM. For the same compound, the values for the GI50 with HCT-15 colon and in the assay on UACC-257 melanoma were 1.56 µM and 5.41 µM, respectively. The TGI in the assay on M14 melanoma turned out to be 9.71 µM; with HCC-2998 colon, 9.92 µM; in the assay on OVCAR-5 ovarian, 18 µM; in the assay with RXF 393 renal, 7.96 µM; with SNB-19 CNS, 28.9 µM; in the assay on SF-268 CNS, 15 µM. Besides, the TGI in the assay on HCT-15 colon was 8.89 µM; in the assay on UACC-257 melanoma, 14.8 µM.

As for `CN1CCCN(C(c2ccccc2)c2ccc(Br)cc2)CC1` (configuration not stated), the GI50 with M14 melanoma is 1.61 µM; in the assay with HCC-2998 colon it was 4.55 µM; in the assay with OVCAR-5 ovarian, 10.7 µM; in the assay on RXF 393 renal, 2.65 µM; with SNB-19 CNS it was 14.8 µM; in the assay with SF-268 CNS, 2.76 µM. The GI50 is 3.49 µM in the assay with HCT-15 colon and 2.41 µM with UACC-257 melanoma. In addition, the TGI in the assay on M14 melanoma turned out to be 2.99 µM; in the assay with HCC-2998 colon, 16 µM; in the assay on OVCAR-5 ovarian, 22.5 µM; with RXF 393 renal it was 8.67 µM; in the assay on SNB-19 CNS, 28 µM; with SF-268 CNS it was 8.97 µM. Further, the TGI in the assay with HCT-15 colon came out at 14 µM; in the assay with UACC-257 melanoma, 5.41 µM.

Consider `CCCCCCCCCC(CCCC(O)CC(=O)O)OC1OC(COC2OC(C)C(O)C(O)C2O)C(O)C(O)C1OC1OC(CO)C(O)C(O)C1OC1OC(C)C(O)C(O)C1O` (configuration not stated), for which the GI50 in the assay with M14 melanoma, with HCC-2998 colon, in the assay on OVCAR-5 ovarian, in the assay on RXF 393 renal, in the assay on SNB-19 CNS and with SF-268 CNS was above 40 µM each time. The GI50 in the assay on HCT-15 colon and in the assay with UACC-257 melanoma was above 40 µM each time. Besides, the TGI with M14 melanoma, in the assay on HCC-2998 colon, with OVCAR-5 ovarian, in the assay on RXF 393 renal, in the assay on SNB-19 CNS and with SF-268 CNS was above 40 µM each time. In addition, the TGI in the assay on HCT-15 colon and with UACC-257 melanoma was above 40 µM in each case.

On to `C=C(CN1CCN(c2cccc(F)c2)CC1)c1ccc(C(=O)Nc2ccccc2N)cc1`, for which the GI50 is 0.311 µM in the assay on M14 melanoma; 2.98 µM in the assay on HCC-2998 colon; 2.61 µM with OVCAR-5 ovarian; 0.563 µM with RXF 393 renal; 1.95 µM in the assay with SNB-19 CNS; 2.3 µM in the assay with SF-268 CNS. Also, the GI50 was 1.02 µM in the assay with HCT-15 colon and 8.19 µM in the assay with UACC-257 melanoma. The TGI in the assay with M14 melanoma was 2.38 µM; with HCC-2998 colon it was 11 µM; with OVCAR-5 ovarian, above 100 µM; in the assay on RXF 393 renal, 6.09 µM; in the assay on SNB-19 CNS, above 100 µM; with SF-268 CNS, above 100 µM. Also, the TGI in the assay on HCT-15 colon was above 100 µM; in the assay with UACC-257 melanoma it was 47.5 µM.

For the compound `COc1ccc(Cn2c(Br)c3c(c2-c2cc(OC)c(OC)c(OC)c2)CCc2sc(NC(C)=O)nc2-3)cc1`, the GI50 in the assay on M14 melanoma is 3.57 µM; in the assay with HCC-2998 colon it was 3.58 µM; with OVCAR-5 ovarian it was 4.39 µM; with RXF 393 renal, 2.24 µM; in the assay with SNB-19 CNS, above 100 µM; in the assay on SF-268 CNS it was 6.15 µM. The GI50 in the assay with HCT-15 colon was 3.12 µM; in the assay on UACC-257 melanoma it was 98.5 µM. The TGI is above 100 µM in the assay with M14 melanoma; above 100 µM in the assay on HCC-2998 colon; above 100 µM with OVCAR-5 ovarian; 10.7 µM in the assay with RXF 393 renal; above 100 µM with SNB-19 CNS; above 100 µM in the assay with SF-268 CNS. Besides, the TGI is 32.2 µM in the assay with HCT-15 colon and above 100 µM with UACC-257 melanoma.

With `CNC1C(OC2C(OC3C(O)C(O)C(O)C(O)C3O)OC(C)C2(O)CO)OC(CO)C(O)C1O` (configuration not stated) (tested in a mixture with another compound), the TGI in the assay with M14 melanoma, with HCC-2998 colon, with OVCAR-5 ovarian, in the assay with RXF 393 renal, in the assay on SNB-19 CNS and in the assay with SF-268 CNS was above 100 µM in each case. For the same compound, the TGI in the assay with HCT-15 colon and with UACC-257 melanoma was above 100 µM in each case.

For the compound `O=C1c2ccccc2C(=O)c2c1ccc1c2OCO1`, the TGI with M14 melanoma, in the assay on HCC-2998 colon, with OVCAR-5 ovarian, with RXF 393 renal, with SNB-19 CNS and with SF-268 CNS was above 100 µM throughout. Further, the TGI in the assay with HCT-15 colon and with UACC-257 melanoma was above 100 µM in each case.

For `Cc1cccc(C[C@H](NC(=O)Nc2ccc(Cl)cc2F)C(=O)N[C@@H]2C(=O)N3C[C@H](OC(=O)CCN(C)C)C[C@H]3C(=O)N3CCCC[C@H]3C(=O)N[C@@H](C)C(=O)N3C[C@H](C)C[C@H]3C(=O)O[C@H]2C)c1` ({NH(4-Cl-2-F-phenyl)-CO}-[Phe(3-Me)][aThr][Hyp](Propanoyl(3-NMe2))[Pip]A[Pro(4R-Me)]; ester 2-C), the GI50 in the assay with M14 melanoma is 0.474 µM; with HCC-2998 colon it was 0.476 µM; in the assay on OVCAR-5 ovarian, 0.552 µM; with RXF 393 renal, 1.23 µM; in the assay on SNB-19 CNS, 0.389 µM; in the assay with SF-268 CNS it was 0.466 µM. Also, the GI50 was 1.98 µM in the assay on HCT-15 colon and 0.385 µM in the assay on UACC-257 melanoma. Moreover, the TGI in the assay with M14 melanoma amounted to 1.89 µM; in the assay with HCC-2998 colon, 1.77 µM; in the assay on OVCAR-5 ovarian, 2.53 µM; in the assay on RXF 393 renal, 2.85 µM; in the assay with SNB-19 CNS, 11.5 µM; in the assay with SF-268 CNS, 4.08 µM. For the same compound, the results for the TGI with HCT-15 colon and with UACC-257 melanoma were 4.34 µM and 2.14 µM, respectively.

As to `CC/C=C\C/C=C\C[C@H]1C/C=C2/C(=O)C=C[C@H]2C/C=C\CCC(=O)O1`, the GI50 in the assay with M14 melanoma was 4.48 µM; in the assay with HCC-2998 colon it was 2.77 µM; with OVCAR-5 ovarian it was 4.13 µM; in the assay with RXF 393 renal, 2.28 µM; in the assay on SNB-19 CNS, 5.04 µM; in the assay with SF-268 CNS it was 3.31 µM. Besides, in the assay with HCT-15 colon, the GI50 was 2.23 µM. The TGI in the assay on M14 melanoma is above 14.3 µM; with HCC-2998 colon it was 5.37 µM; in the assay with OVCAR-5 ovarian, above 14.3 µM; in the assay on RXF 393 renal, 4.61 µM; with SNB-19 CNS, above 14.3 µM; in the assay with SF-268 CNS it was 10.4 µM. Moreover, in the assay with HCT-15 colon, the TGI worked out at 6 µM.

Values taken from PubChem BioAssay (NCI).
